The assay concerns the target T1, MKK7 (Homo sapiens, UniProt O14733).
T1 construct: gene MAP2K7
Put plainly: biochemical.

As usually defined, the IC50 is the concentration at which inhibition is half-maximal. Low readings indicate greater potency, high ones weaker potency.

T1 sequence (O14733 2-419): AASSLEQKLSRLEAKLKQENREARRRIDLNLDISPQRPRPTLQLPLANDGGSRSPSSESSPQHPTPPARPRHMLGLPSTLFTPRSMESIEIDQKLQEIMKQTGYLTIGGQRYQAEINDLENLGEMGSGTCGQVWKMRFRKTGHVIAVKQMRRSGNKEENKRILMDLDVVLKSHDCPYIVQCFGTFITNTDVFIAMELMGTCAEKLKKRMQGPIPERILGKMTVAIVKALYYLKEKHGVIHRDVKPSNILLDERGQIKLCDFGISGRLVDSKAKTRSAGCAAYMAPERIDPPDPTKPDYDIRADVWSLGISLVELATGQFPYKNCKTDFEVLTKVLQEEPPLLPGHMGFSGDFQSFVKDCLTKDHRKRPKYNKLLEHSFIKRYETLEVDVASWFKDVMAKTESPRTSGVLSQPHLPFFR

The molecule `COc1ccc2c(Cc3ccc(O[Si](C)(C)C(C)(C)C)cc3)c3[n+](cc2c1OC)CCc1cc2c(cc1-3)OCO2` [HWY336] returned a concentration for half-maximal inhibition (IC50) of 10 µM.

The values are drawn from article PMC3997336 (PLoS ONE, 2014).
